Reference: US20230085307A1, “PYRIDAZINONE COMPOUND AND HERBICIDE” (NISSAN CHEMICAL CORPORATION, priority 2019, published 2023)

Assays:
late watergrass = test: Test Example 1: herbicidal activity, application before weed generation under submerged conditions (Table 16, symbol A); assay type: in vivo, late watergrass (Echinochloa oryzicola); conditions: 320 g/ha applied herbicide
Summary of the method: (§1)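 Alluvial soil was flooded to 4 cm depth, weed seeds were sown mixed and 2.5-leaf rice seedlings were transplanted. On sowing day, the compound's emulsion, diluted in water to a set dose, was applied to the water surface. Plants grew at 25–30 °C and were scored 0–5 after three weeks.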

Japanese bulrush = test: Test Example 1: herbicidal activity, application before weed generation under submerged conditions (Table 16, symbol B); assay type: in vivo, Japanese bulrush (Schoenoplectus juncoides); conditions: 320 g/ha applied herbicide
Summary of the method: as §1

oval-leafed pondweed = test: Test Example 1: herbicidal activity, application before weed generation under submerged conditions (Table 16, symbol C); assay type: in vivo, oval-leafed pondweed (Monochoria vaginalis); conditions: 320 g/ha applied herbicide
Summary of the method: as §1

barnyard grass [1] = test: Test Example 3: herbicidal effect by foliage application, Wagner pot (Table 18, symbol H); assay type: in vivo, barnyard grass (Echinochloa crus-galli)
Summary of the method: (§2)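 Plants were sown in alluvial soil held under 0.1–0.5 cm standing water and grown 14 days in a greenhouse at 25–30 °C. An emulsifiable formulation, water-diluted to the set dose, was then sprayed onto the foliage, and effects were scored three weeks later using previously defined criteria.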

Chinese sprangletop = test: Test Example 3: herbicidal effect by foliage application, Wagner pot (Table 18, symbol D); assay type: in vivo, chinese sprangletop (Leptochloa chinensis)
Summary of the method: as §2

rice flat sedge = test: Test Example 3: herbicidal effect by foliage application, Wagner pot (Table 18, symbol E); assay type: in vivo, rice flat sedge (Cyperus iria)
Summary of the method: as §2

southern crabgrass [2] = test: Test Example 4: herbicidal effect by soil treatment (Table 19, symbol F); assay type: in vivo, southern crabgrass (Digitaria ciliaris)
Summary of the method: (§3)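 Applied as a water-diluted emulsion, the compound was sprayed onto soil covering newly sown seeds. Evaluation came three weeks after application, in a greenhouse held at 25° C. to 30° C.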

green foxtail [3] = test: Test Example 4: herbicidal effect by soil treatment (Table 19, symbol G); assay type: in vivo, green foxtail (Setaria viridis)
Summary of the method: as §3

barnyard grass [4] = test: Test Example 4: herbicidal effect by soil treatment (Table 19, symbol H); assay type: in vivo, barnyard grass (Echinochloa crus-galli)
Summary of the method: as §3

wild oat [5] = test: Test Example 4: herbicidal effect by soil treatment (Table 19, symbol I); assay type: in vivo, wild oat (Avena fatua)
Summary of the method: as §3

Italian ryegrass [6] = test: Test Example 4: herbicidal effect by soil treatment (Table 19, symbol K); assay type: in vivo, Italian ryegrass (Lolium multiflorum)
Summary of the method: as §3

windgrass [7] = test: Test Example 4: herbicidal effect by soil treatment (Table 19, symbol L); assay type: in vivo, windgrass (Apera spica-venti)
Summary of the method: as §3

velvetleaf [8] = test: Test Example 4: herbicidal effect by soil treatment (Table 19, symbol M); assay type: in vivo, velvetleaf (Abutilon theophrasti)
Summary of the method: as §3

redroot pigweed [9] = test: Test Example 4: herbicidal effect by soil treatment (Table 19, symbol N); assay type: in vivo, redroot pigweed (Amaranthus retroflexus)
Summary of the method: as §3

lambsquarters [10] = test: Test Example 4: herbicidal effect by soil treatment (Table 19, symbol O); assay type: in vivo, lambsquarters (Chenopodium album)
Summary of the method: as §3

chickweed [11] = test: Test Example 4: herbicidal effect by soil treatment (Table 19, symbol P); assay type: in vivo, common chickweed (Stellaria media)
Summary of the method: as §3

persian speedwell [12] = test: Test Example 4: herbicidal effect by soil treatment (Table 19, symbol R); assay type: in vivo, Persian speedwell (Veronica persica)
Summary of the method: as §3

southern crabgrass [13] = test: Test Example 5: herbicidal effect by foliage application, plastic box (Table 20, symbol F); assay type: in vivo, southern crabgrass (Digitaria ciliaris); conditions: foliage application
Summary of the method: (§4)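 Sow seeds spot-wise in sterilized diluvial soil; cover with ~1.5 cm soil. Grow 14 days in greenhouse, 25° C. to 30° C. Spray foliage with emulsion diluted to predetermined amount. Rate effect after 3 weeks.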

green foxtail [14] = test: Test Example 5: herbicidal effect by foliage application, plastic box (Table 20, symbol G); assay type: in vivo, green foxtail (Setaria viridis); conditions: foliage application
Summary of the method: as §4

barnyard grass [15] = test: Test Example 5: herbicidal effect by foliage application, plastic box (Table 20, symbol H); assay type: in vivo, barnyard grass (Echinochloa crus-galli); conditions: foliage application
Summary of the method: as §4

wild oat [16] = test: Test Example 5: herbicidal effect by foliage application, plastic box (Table 20, symbol I); assay type: in vivo, wild oat (Avena fatua); conditions: foliage application
Summary of the method: as §4

blackgrass [17] = test: Test Example 5: herbicidal effect by foliage application, plastic box (Table 20, symbol J); assay type: in vivo, blackgrass (Alopecurus myosuroides); conditions: foliage application
Summary of the method: as §4

Italian ryegrass [18] = test: Test Example 5: herbicidal effect by foliage application, plastic box (Table 20, symbol K); assay type: in vivo, Italian ryegrass (Lolium multiflorum); conditions: foliage application
Summary of the method: as §4

windgrass [19] = test: Test Example 5: herbicidal effect by foliage application, plastic box (Table 20, symbol L); assay type: in vivo, windgrass (Apera spica-venti); conditions: foliage application
Summary of the method: as §4

velvetleaf [20] = test: Test Example 5: herbicidal effect by foliage application, plastic box (Table 20, symbol M); assay type: in vivo, velvetleaf (Abutilon theophrasti); conditions: foliage application
Summary of the method: as §4

redroot pigweed [21] = test: Test Example 5: herbicidal effect by foliage application, plastic box (Table 20, symbol N); assay type: in vivo, redroot pigweed (Amaranthus retroflexus); conditions: foliage application
Summary of the method: as §4

lambsquarters [22] = test: Test Example 5: herbicidal effect by foliage application, plastic box (Table 20, symbol O); assay type: in vivo, lambsquarters (Chenopodium album); conditions: foliage application
Summary of the method: as §4

chickweed [23] = test: Test Example 5: herbicidal effect by foliage application, plastic box (Table 20, symbol P); assay type: in vivo, common chickweed (Stellaria media); conditions: foliage application
Summary of the method: as §4

false cleavers = test: Test Example 5: herbicidal effect by foliage application, plastic box (Table 20, symbol Q); assay type: in vivo, false cleavers (Galium spurium); conditions: foliage application
Summary of the method: as §4

persian speedwell [24] = test: Test Example 5: herbicidal effect by foliage application, plastic box (Table 20, symbol R); assay type: in vivo, Persian speedwell (Veronica persica); conditions: foliage application
Summary of the method: as §4

blackgrass [25] = test: Test Example 4: herbicidal effect by soil treatment (Table 19, symbol J); assay type: in vivo, blackgrass (Alopecurus myosuroides); conditions: amount of applied herbicide 320 g/ha
Summary of the method: as §3

[26] = AAH 320 g/ha, three weeks after application
[27] = amount of applied herbicide 320 g/ha
[28] = 320 g/ha, evaluated three weeks after application

SMILES: Cc1nn(C)c(=O)c(-c2c(-c3ccccc3OCC3CC3)sc3ccccc23)c1O [1-113]
- Herbicidal effect on A: late watergrass (grade 0-5) (late watergrass): 3 (Herbicidal rate of 40% or more and less than 70%)
- Herbicidal effect on B: Japanese bulrush (grade 0-5) (Japanese bulrush): 0 (Herbicidal rate of 5% or less (almost no effect))
- Herbicidal effect on C: oval-leafed pondweed (grade 0-5) (oval-leafed pondweed): 0 (Herbicidal rate of 5% or less (almost no effect))
- herbicidal effect on H (barnyard grass), rating 0-5 (barnyard grass [1]; 320 g/ha): 4 (Herbicidal rate of 70% or more and less than 90%)
- herbicidal effect on D (Chinese sprangletop), rating 0-5 (Chinese sprangletop; 320 g/ha): 0 (Herbicidal rate of 5% or less (almost no effect))
- herbicidal effect on E (rice flat sedge), rating 0-5 (rice flat sedge; 320 g/ha): 3 (Herbicidal rate of 40% or more and less than 70%)
- F: southern crabgrass, herbicidal effect rating (southern crabgrass [2]; AAH 320 g/ha): 2 (Herbicidal rate of 20% or more and less than 40%)
- G: green foxtail, herbicidal effect rating (green foxtail [3]; AAH 320 g/ha): 1 (Herbicidal rate of 5% or more and less than 20%)
- H: barnyard grass, herbicidal effect rating (barnyard grass [4]; AAH 320 g/ha): 3 (Herbicidal rate of 40% or more and less than 70%)
- I: wild oat, herbicidal effect rating (wild oat [5]; AAH 320 g/ha): 1 (Herbicidal rate of 5% or more and less than 20%)
- K: Italian ryegrass, herbicidal effect rating (Italian ryegrass [6]; AAH 320 g/ha): 0 (Herbicidal rate of 5% or less (almost no effect))
- L: windgrass, herbicidal effect rating (windgrass [7]; AAH 320 g/ha): 0 (Herbicidal rate of 5% or less (almost no effect))
- M: velvetleaf, herbicidal effect rating (velvetleaf [8]; AAH 320 g/ha): 0 (Herbicidal rate of 5% or less (almost no effect))
- N: redroot pigweed, herbicidal effect rating (redroot pigweed [9]; AAH 320 g/ha): 3 (Herbicidal rate of 40% or more and less than 70%)
- O: lambsquarters, herbicidal effect rating (lambsquarters [10]; AAH 320 g/ha): 2 (Herbicidal rate of 20% or more and less than 40%)
- P: chickweed, herbicidal effect rating (chickweed [11]; AAH 320 g/ha): 4 (Herbicidal rate of 70% or more and less than 90%)
- R: persian speedwell, herbicidal effect rating (persian speedwell [12]; AAH 320 g/ha): 5 (Herbicidal rate of 90% or more (almost completely withered))
- F: southern crabgrass, herbicidal effect (southern crabgrass [13]; [26]): 0 (Herbicidal rate of 5% or less (almost no effect))
- G: green foxtail, herbicidal effect (green foxtail [14]; [26]): 0 (Herbicidal rate of 5% or less (almost no effect))
- H: barnyard grass, herbicidal effect (barnyard grass [15]; [26]): 1 (Herbicidal rate of 5% or more and less than 20%)
- I: wild oat, herbicidal effect (wild oat [16]; [26]): 1 (Herbicidal rate of 5% or more and less than 20%)
- J: blackgrass, herbicidal effect (blackgrass [17]; [26]): 3 (Herbicidal rate of 40% or more and less than 70%)
- K: Italian ryegrass, herbicidal effect (Italian ryegrass [18]; [26]): 1 (Herbicidal rate of 5% or more and less than 20%)
- L: windgrass, herbicidal effect (windgrass [19]; [26]): 2 (Herbicidal rate of 20% or more and less than 40%)
- M: velvetleaf, herbicidal effect (velvetleaf [20]; [26]): 3 (Herbicidal rate of 40% or more and less than 70%)
- N: redroot pigweed, herbicidal effect (redroot pigweed [21]; [26]): 0 (Herbicidal rate of 5% or less (almost no effect))
- O: lambsquarters, herbicidal effect (lambsquarters [22]; [26]): 0 (Herbicidal rate of 5% or less (almost no effect))
- P: chickweed, herbicidal effect (chickweed [23]; [26]): 5 (Herbicidal rate of 90% or more (almost completely withered))
- Q: false cleavers, herbicidal effect (false cleavers; [26]): 5 (Herbicidal rate of 90% or more (almost completely withered))
- R: persian speedwell, herbicidal effect (persian speedwell [24]; [26]): 5 (Herbicidal rate of 90% or more (almost completely withered))

SMILES: CCCC(=O)Oc1c(C)nn(C)c(=O)c1-c1c(-c2ccc(OC)c(F)c2)sc2ccc(Cl)cc12 [2-118]
- Herbicidal effect on A: late watergrass (grade 0-5) (late watergrass): 4 (Herbicidal rate of 70% or more and less than 90%)
- Herbicidal effect on B: Japanese bulrush (grade 0-5) (Japanese bulrush): 3 (Herbicidal rate of 40% or more and less than 70%)
- Herbicidal effect on C: oval-leafed pondweed (grade 0-5) (oval-leafed pondweed): 0 (Herbicidal rate of 5% or less (almost no effect))
- herbicidal effect on H: barnyard grass (barnyard grass [1]; [27]): 2 (Herbicidal rate of 20% or more and less than 40%)
- herbicidal effect on D: Chinese sprangletop (Chinese sprangletop; [27]): 0 (Herbicidal rate of 5% or less (almost no effect))
- herbicidal effect on E: rice flat sedge (rice flat sedge; [27]): 0 (Herbicidal rate of 5% or less (almost no effect))
- F: southern crabgrass, herbicidal effect rating (southern crabgrass [2]; [27]): 0 (Herbicidal rate of 5% or less (almost no effect))
- G: green foxtail, herbicidal effect rating (green foxtail [3]; [27]): 0 (Herbicidal rate of 5% or less (almost no effect))
- H: barnyard grass, herbicidal effect rating (barnyard grass [4]; [27]): 0 (Herbicidal rate of 5% or less (almost no effect))
- I: wild oat, herbicidal effect rating (wild oat [5]; [27]): 0 (Herbicidal rate of 5% or less (almost no effect))
- J: blackgrass, herbicidal effect rating (blackgrass [25]): 0 (Herbicidal rate of 5% or less (almost no effect))
- K: Italian ryegrass, herbicidal effect rating (Italian ryegrass [6]; [27]): 0 (Herbicidal rate of 5% or less (almost no effect))
- L: windgrass, herbicidal effect rating (windgrass [7]; [27]): 0 (Herbicidal rate of 5% or less (almost no effect))
- M: velvetleaf, herbicidal effect rating (velvetleaf [8]; [27]): 1 (Herbicidal rate of 5% or more and less than 20%)
- N: redroot pigweed, herbicidal effect rating (redroot pigweed [9]; [27]): 0 (Herbicidal rate of 5% or less (almost no effect))
- O: lambsquarters, herbicidal effect rating (lambsquarters [10]; [27]): 2 (Herbicidal rate of 20% or more and less than 40%)
- P: chickweed, herbicidal effect rating (chickweed [11]; [27]): 4 (Herbicidal rate of 70% or more and less than 90%)
- R: persian speedwell, herbicidal effect rating (persian speedwell [12]; [27]): 5 (Herbicidal rate of 90% or more (almost completely withered))
- herbicidal effect on F: southern crabgrass (southern crabgrass [13]; [28]): 0 (Herbicidal rate of 5% or less (almost no effect))
- herbicidal effect on G: green foxtail (green foxtail [14]; [28]): 0 (Herbicidal rate of 5% or less (almost no effect))
- herbicidal effect on H: barnyard grass (barnyard grass [15]; [28]): 0 (Herbicidal rate of 5% or less (almost no effect))
- herbicidal effect on I: wild oat (wild oat [16]; [28]): 0 (Herbicidal rate of 5% or less (almost no effect))
- herbicidal effect on J: blackgrass (blackgrass [17]; [28]): 0 (Herbicidal rate of 5% or less (almost no effect))
- herbicidal effect on K: Italian ryegrass (Italian ryegrass [18]; [28]): 0 (Herbicidal rate of 5% or less (almost no effect))
- herbicidal effect on L: windgrass (windgrass [19]; [28]): 0 (Herbicidal rate of 5% or less (almost no effect))
- herbicidal effect on M: velvetleaf (velvetleaf [20]; [28]): 3 (Herbicidal rate of 40% or more and less than 70%)
- herbicidal effect on N: redroot pigweed (redroot pigweed [21]; [28]): 0 (Herbicidal rate of 5% or less (almost no effect))
- herbicidal effect on O: lambsquarters (lambsquarters [22]; [28]): 1 (Herbicidal rate of 5% or more and less than 20%)
- herbicidal effect on P: chickweed (chickweed [23]; [28]): 5 (Herbicidal rate of 90% or more (almost completely withered))
- herbicidal effect on Q: false cleavers (false cleavers; [28]): 1 (Herbicidal rate of 5% or more and less than 20%)
- herbicidal effect on R: persian speedwell (persian speedwell [24]; [28]): 5 (Herbicidal rate of 90% or more (almost completely withered))
